≈ marks a conversion by molar mass, not a printed value. Where two headings read alike, the source gives them in different places.
Assays:
[1] = Stereo-microscopic observation of drug-containing hydrophilic matrix films and gels (finely-dispersed state / precipitation); type: physicochemical; parameters: key: ∘: contained in a finely-dispersed state; Δ: partially precipitated; settings: gelatin film cast from HFIP, stereo microscope; for State of drug in gelatin film, Drug/gelatin mass proportion 0.1%: drug/gelatin 0.1%; for State of drug in gelatin film, Drug/gelatin mass proportion 1.0%: drug/gelatin 1.0%; for State of drug in gelatin film, Drug/gelatin mass proportion 5.0%: drug/gelatin 5.0%
Method: The term “in a finely-dispersed state” used herein refers to a condition in which the contained poorly water-soluble drug, which is a compound of a size that cannot be detected with a stereo microscope (MZ16A produced by Leica), is uniformly dispersed in a matrix, or a condition in which such a drug is in a molecular dispersion state in a matrix.
Paclitaxel (produced by LCL laboratories) was used as a poorly water-soluble compound. […] 1,1,1,3,3,3-hexafluoro-2-propanol solution (HFIP; 200 μL) containing paclitaxel (1 mg/mL) and gelatin (100 mg/mL; PSK gelatin produced by Nippi Inc.) was coated on a polypropylene dish (2 cm×2 cm×500 μm), followed by drying at an ordinary temperature for 15 hours. Thus, a paclitaxel-containing gelatin film was produced.
Upon observation with a stereo microscope (produced by Leica, MZ16A), precipitation of paclitaxel was not observed. […] In addition, the gel produced with HFIP and subjected to crosslinking with transglutaminase and water swelling was transparent.
Observation was carried out in the same manner as in Example 2.
Drug-containing gelatin films were produced in the same manner as in Example 1 except that paclitaxel used in Example 1 was replaced by drugs with concentrations listed in Table 1 below. Observation was carried out in the same manner as in Example 2. […]

[2] = Solubility in 1,1,1,3,3,3-hexafluoro-2-propanol (HFIP); settings: for solubility: 1,1,1,3,3,3-hexafluoro-2-propanol (HFIP), organic solvent or mixture, thermodynamic from solid
Method: The solubility in hexafluoroisopropanol is determined as described below according to the present invention. A mixture is prepared by adding a compound to 1,1,1-3,3,3-hexafluoro-2-propanol while changing the concentration of the compound in a stepwise manner, and the concentration at which precipitation takes place is examined. Thus, the solubility of the compound in 1,1,1-3,3,3-hexafluoro-2-propanol is determined. In addition, a soluble/insoluble state is determined by confirming the presence of a deposit after centrifugation of the above mixture with a micro centrifuge (Chibitan II XX42CF00T produced by Tech-Jam) for 20 seconds.

[3] = upper dissolution limit - lower precipitation limit, samples at 30, 50, 100, 200, 500 mg/ml

| State of drug in gelatin film, Drug/gelatin mass proportion 0.1% [1] | State of drug in gelatin film, Drug/gelatin mass proportion 1.0% [1] | State of drug in gelatin film, Drug/gelatin mass proportion 5.0% [1] | solubility [2] [mg/mL] | Solubility in HFIP [2] [mg/mL] | SMILES | Solubility in HFIP [2, 3] [mg/mL] |
| --- | --- | --- | --- | --- | --- | --- |
| ∘ | ∘ | ∘ | 100 to 200 (≈ 124 to 248 mM) |  | CC(=O)O[C@@]12CO[C@@H]1C[C@H](O)[C@@]1(C)C(=O)[C@H](O)C3=C(C)[C@@H](OC(=O)[C@H](O)[C@@H](NC(=O)OC(C)(C)C)c4ccccc4)C[C@@](O)([C@@H](OC(=O)c4ccccc4)[C@H]21)C3(C)C [Docetaxel] |  |
| ∘ | ∘ | ∘ | 200 to 500 (≈ 234 to 586 mM) |  | CC(=O)O[C@H]1C(=O)[C@@]2(C)[C@H]([C@H](OC(=O)c3ccccc3)[C@]3(O)C[C@H](OC(=O)[C@H](O)[C@@H](NC(=O)c4ccccc4)c4ccccc4)C(C)=C1C3(C)C)[C@]1(OC(C)=O)CO[C@@H]1C[C@@H]2O [Paclitaxel] | 200 to 500 |
| ∘ | ∘ | Precipitated | 50 to 100 (≈ 198 to 396 mM) |  | O=C1NC(=O)C(c2ccccc2)(c2ccccc2)N1 [Phenytoin] |  |
|  |  |  | 200 to 500 (≈ 219 to 547 mM) |  | CO[C@H]1C[C@@H]2CC[C@@H](C)[C@@](O)(O2)C(=O)C(=O)N2CCCC[C@H]2C(=O)O[C@H]([C@H](C)C[C@@H]2CC[C@@H](O)[C@H](OC)C2)CC(=O)[C@H](C)/C=C(\C)[C@@H](O)[C@@H](OC)C(=O)[C@H](C)C[C@H](C)/C=C/C=C/C=C/1C [Rapamycin] |  |

More lines, now with the values behind:

| SMILES | State of drug in gelatin film, Drug/gelatin mass proportion 0.1% [1] | State of drug in gelatin film, Drug/gelatin mass proportion 1.0% [1] | State of drug in gelatin film, Drug/gelatin mass proportion 5.0% [1] | solubility [2] [mg/mL] | Solubility in HFIP [2] [mg/mL] | Solubility in HFIP [2, 3] [mg/mL] |
| --- | --- | --- | --- | --- | --- | --- |
| CC(=O)Oc1ccccc1C(=O)O [Aspirin] | ∘ | ∘ | ∘ | 200 to 500 (≈ 1110 to 2780 mM) |  |  |
| CC12CCC(C(=O)C1=O)C2(C)C (centres unmarked) [Camphorquinone] | ∘ | ∘ | ∘ | 200 to 500 (≈ 1200 to 3010 mM) |  |  |
| CCN(CC)c1ccc2c(C)cc(=O)oc2c1 [Coumarin 1] | ∘ | ∘ | ∘ |  |  | 200 to 500 |
| CCN(CC)c1ccc2cc(-c3nc4ccccc4s3)c(=O)oc2c1 [Coumarin 6] | ∘ | Precipitated | Precipitated |  | 30 to 50 |  |
| CN(C)c1ccc(N=Nc2ccccc2)cc1 [Methyl yellow] | ∘ | ∘ | Precipitated |  |  | 50 to 100 |
| C=C1CC[C@H](O)C/C1=C/C=C1\CCC[C@]2(C)[C@@H]([C@H](C)CCCC(C)C)CC[C@@H]12 [Vitamin D3] | ∘ | ∘ | ∘ |  |  | 200 to 500 |
